Assay results: article PMC3445516 (PLoS ONE, 2012)
Like-named read-outs stand apart in the source and are kept apart here. One block for each compound: values may come before it.

What was measured:
Experiment in all cases: Ambit kinase profiling, competition binding
ERBB4 = molecular target: T1, ERBB4 (Homo sapiens, UniProt Q15303)
T1 construct: purchased Ambit Biosciences (KINOMEscan)
Experimental: (§1) Also included in the kinase profile are four isoforms of PKC (δ, ε, η, θ) and eight isoforms of CAMKs (CAMKIα, δ, γ; CAMKIIα, β, δ, γ; CAMK4).
(§2) The global kinase profiling experiment was performed by Ambit Biosciences.

FLT3(D835Y) = molecular target: T2, FLT3(D835Y) (Homo sapiens, UniProt P36888, D835Y)
T2 construct: purchased Ambit Biosciences (KINOMEscan)
T2 sequence (P36888 27-993 D835Y): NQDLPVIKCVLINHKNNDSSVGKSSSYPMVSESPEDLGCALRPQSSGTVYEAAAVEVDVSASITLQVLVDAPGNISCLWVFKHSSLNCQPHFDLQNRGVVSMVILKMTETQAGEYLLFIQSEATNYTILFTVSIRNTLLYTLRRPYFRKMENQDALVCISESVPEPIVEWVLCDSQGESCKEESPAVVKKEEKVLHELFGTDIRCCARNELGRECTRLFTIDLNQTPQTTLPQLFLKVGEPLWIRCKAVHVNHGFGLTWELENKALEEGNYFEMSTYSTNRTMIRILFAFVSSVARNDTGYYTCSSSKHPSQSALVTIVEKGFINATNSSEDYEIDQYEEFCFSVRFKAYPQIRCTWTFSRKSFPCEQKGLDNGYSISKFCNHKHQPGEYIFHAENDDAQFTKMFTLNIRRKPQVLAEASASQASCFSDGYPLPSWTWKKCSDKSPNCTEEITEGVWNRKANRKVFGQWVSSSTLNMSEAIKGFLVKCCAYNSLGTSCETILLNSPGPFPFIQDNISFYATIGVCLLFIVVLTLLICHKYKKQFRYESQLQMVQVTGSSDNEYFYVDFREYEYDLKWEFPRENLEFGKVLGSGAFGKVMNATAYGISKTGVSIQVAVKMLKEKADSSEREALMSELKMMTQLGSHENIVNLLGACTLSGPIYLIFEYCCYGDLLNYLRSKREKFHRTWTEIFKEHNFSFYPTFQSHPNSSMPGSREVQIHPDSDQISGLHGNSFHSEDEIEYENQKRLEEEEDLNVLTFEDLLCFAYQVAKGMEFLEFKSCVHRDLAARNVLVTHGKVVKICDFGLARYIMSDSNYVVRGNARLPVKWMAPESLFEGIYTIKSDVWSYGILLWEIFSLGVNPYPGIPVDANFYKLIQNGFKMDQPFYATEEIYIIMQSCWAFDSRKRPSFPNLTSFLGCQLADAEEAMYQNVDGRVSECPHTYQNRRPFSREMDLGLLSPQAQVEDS
Experimental: as §1, §2

MST3 = molecular target: T3, MST3 (Homo sapiens, UniProt Q9Y6E0); details: for % Competition: 10 µM
T3 construct: purchased Ambit Biosciences (KINOMEscan)
Experimental: as §1, §2

TNIK = molecular target: T4, TNIK (Homo sapiens, UniProt Q9UKE5)
T4 construct: purchased Ambit Biosciences (KINOMEscan)
Experimental: as §1, §2

PKC ε = molecular target: T5, PKC ε (Homo sapiens, UniProt Q02156); details: for competition: PKC ε, 10 µM
T5 construct: purchased Ambit Biosciences (KINOMEscan)
T5 sequence (Q02156 1-737): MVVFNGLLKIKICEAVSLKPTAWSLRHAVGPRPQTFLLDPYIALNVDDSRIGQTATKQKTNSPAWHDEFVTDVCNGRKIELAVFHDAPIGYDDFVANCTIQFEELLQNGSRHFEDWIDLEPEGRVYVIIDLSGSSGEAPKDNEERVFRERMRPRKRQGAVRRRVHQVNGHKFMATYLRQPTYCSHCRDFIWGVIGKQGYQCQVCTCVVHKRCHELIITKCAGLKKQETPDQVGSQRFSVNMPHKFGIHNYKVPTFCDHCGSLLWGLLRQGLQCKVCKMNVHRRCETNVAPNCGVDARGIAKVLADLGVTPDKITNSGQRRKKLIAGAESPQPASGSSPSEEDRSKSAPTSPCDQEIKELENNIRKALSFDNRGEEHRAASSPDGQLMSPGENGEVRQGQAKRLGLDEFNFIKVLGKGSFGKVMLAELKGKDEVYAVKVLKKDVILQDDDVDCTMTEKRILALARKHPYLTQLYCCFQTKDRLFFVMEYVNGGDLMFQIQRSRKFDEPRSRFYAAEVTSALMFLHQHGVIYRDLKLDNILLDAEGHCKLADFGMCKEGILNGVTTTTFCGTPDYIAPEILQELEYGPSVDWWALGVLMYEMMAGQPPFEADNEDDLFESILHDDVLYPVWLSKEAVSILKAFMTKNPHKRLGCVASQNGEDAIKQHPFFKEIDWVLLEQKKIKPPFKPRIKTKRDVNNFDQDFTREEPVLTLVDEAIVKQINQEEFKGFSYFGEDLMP
Experimental: as §1, §2

BMPR1B = molecular target: T6, BMPR1B (Homo sapiens, UniProt O00238)
T6 construct: purchased Ambit Biosciences (KINOMEscan)
Experimental: as §1, §2

MRCKB = molecular target: T7, MRCKB (Homo sapiens, UniProt Q9Y5S2)
T7 construct: purchased Ambit Biosciences (KINOMEscan)
Experimental: as §1, §2

MARK2 = molecular target: T8, MARK2 (Homo sapiens, UniProt Q7KZI7)
T8 construct: purchased Ambit Biosciences (KINOMEscan)
Experimental: as §1, §2

IRAK3 = molecular target: T9, IRAK3 (Homo sapiens, UniProt Q9Y616)
T9 construct: purchased Ambit Biosciences (KINOMEscan)
T9 sequence (Q9Y616 1-596): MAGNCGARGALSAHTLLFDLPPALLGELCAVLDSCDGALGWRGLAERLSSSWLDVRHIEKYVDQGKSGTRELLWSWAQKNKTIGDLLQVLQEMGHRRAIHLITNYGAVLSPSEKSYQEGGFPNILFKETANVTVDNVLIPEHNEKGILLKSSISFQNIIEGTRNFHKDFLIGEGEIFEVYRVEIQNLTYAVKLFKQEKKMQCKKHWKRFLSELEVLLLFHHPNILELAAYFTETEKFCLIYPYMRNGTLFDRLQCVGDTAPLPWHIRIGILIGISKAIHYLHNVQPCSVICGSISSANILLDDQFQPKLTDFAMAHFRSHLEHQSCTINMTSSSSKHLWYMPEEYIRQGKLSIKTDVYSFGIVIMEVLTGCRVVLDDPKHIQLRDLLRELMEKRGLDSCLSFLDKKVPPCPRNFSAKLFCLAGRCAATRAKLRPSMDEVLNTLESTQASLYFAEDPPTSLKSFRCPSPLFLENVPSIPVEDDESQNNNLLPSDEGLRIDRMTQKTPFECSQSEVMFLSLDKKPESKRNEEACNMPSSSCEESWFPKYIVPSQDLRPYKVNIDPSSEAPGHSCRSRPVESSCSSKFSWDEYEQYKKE
Experimental: as §1, §2

T4 sequence (Q9UKE5 whole entry): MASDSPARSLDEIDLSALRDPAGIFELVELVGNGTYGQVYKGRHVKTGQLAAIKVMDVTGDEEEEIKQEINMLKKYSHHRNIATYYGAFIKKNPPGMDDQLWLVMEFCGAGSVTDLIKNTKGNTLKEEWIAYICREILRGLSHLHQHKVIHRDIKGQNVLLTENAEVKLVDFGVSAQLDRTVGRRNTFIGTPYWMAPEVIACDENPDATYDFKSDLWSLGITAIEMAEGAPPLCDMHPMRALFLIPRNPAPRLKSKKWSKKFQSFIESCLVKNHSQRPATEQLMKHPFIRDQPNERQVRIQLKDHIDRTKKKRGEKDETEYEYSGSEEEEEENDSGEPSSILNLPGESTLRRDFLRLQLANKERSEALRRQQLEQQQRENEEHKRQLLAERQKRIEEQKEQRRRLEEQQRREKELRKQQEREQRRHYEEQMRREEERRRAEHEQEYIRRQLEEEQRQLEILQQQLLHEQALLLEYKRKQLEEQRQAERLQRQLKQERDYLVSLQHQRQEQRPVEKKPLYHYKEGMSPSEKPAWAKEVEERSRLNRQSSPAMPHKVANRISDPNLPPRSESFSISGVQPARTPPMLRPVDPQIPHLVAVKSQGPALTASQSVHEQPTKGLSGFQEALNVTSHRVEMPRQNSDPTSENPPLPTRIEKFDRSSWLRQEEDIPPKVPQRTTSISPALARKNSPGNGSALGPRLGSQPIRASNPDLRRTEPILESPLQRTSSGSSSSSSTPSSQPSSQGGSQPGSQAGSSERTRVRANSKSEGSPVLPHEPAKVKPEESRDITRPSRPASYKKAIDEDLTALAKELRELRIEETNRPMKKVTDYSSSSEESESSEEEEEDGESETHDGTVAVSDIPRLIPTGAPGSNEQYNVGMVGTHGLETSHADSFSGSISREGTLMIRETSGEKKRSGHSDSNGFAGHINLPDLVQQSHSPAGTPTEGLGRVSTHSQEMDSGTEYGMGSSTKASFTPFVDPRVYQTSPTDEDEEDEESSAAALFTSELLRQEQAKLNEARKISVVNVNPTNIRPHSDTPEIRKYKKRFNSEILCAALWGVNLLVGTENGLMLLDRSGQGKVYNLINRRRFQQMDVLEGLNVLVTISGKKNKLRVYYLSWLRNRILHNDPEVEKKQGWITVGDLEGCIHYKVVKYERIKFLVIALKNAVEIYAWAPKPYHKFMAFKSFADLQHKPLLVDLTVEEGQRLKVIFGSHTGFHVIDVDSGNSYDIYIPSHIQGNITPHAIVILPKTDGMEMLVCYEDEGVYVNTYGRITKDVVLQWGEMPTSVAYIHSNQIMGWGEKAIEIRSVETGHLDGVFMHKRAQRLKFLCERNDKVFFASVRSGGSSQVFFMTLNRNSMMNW
T3 sequence (Q9Y6E0 whole entry): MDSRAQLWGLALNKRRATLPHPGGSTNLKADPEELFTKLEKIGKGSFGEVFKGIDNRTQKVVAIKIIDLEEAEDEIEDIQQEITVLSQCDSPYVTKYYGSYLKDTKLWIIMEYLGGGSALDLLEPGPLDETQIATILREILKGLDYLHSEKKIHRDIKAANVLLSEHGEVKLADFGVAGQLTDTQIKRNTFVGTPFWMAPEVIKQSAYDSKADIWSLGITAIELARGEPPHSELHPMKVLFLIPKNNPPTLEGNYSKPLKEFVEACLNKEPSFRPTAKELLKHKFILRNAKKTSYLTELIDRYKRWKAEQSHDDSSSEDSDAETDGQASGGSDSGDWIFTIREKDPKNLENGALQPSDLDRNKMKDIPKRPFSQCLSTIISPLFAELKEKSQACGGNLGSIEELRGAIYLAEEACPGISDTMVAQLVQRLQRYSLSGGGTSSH
T1 sequence (Q15303 26-1308): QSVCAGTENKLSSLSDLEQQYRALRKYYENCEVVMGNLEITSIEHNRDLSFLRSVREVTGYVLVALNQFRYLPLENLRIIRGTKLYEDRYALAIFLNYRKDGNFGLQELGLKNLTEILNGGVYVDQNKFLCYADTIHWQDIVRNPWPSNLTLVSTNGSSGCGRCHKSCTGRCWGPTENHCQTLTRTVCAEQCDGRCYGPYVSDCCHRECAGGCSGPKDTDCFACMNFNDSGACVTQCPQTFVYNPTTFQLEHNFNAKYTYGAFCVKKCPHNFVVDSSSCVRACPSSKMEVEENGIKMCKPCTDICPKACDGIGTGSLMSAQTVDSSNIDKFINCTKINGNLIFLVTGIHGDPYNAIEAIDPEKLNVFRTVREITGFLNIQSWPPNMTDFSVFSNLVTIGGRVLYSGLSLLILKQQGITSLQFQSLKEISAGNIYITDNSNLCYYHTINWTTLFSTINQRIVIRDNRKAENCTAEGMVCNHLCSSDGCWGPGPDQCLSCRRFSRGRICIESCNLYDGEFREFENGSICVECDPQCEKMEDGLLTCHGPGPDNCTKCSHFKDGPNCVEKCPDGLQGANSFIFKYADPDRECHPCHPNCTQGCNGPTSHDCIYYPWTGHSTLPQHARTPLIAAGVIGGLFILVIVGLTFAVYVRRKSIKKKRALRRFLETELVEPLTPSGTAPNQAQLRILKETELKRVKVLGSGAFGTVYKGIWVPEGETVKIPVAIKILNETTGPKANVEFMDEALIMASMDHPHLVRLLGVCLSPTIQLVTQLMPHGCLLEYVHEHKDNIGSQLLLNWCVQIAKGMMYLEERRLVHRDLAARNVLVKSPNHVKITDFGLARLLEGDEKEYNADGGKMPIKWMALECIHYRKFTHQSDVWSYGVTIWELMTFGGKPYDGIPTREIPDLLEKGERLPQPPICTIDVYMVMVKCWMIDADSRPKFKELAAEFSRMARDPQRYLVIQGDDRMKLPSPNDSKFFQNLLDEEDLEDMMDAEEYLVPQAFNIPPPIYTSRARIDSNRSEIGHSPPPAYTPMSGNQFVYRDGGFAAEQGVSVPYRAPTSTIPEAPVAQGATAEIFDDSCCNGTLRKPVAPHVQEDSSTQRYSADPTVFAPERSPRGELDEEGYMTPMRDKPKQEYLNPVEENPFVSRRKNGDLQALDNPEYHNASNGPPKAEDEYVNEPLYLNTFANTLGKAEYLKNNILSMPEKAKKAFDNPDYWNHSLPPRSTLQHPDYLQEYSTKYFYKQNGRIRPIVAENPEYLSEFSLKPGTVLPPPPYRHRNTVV
T7 sequence (Q9Y5S2 whole entry): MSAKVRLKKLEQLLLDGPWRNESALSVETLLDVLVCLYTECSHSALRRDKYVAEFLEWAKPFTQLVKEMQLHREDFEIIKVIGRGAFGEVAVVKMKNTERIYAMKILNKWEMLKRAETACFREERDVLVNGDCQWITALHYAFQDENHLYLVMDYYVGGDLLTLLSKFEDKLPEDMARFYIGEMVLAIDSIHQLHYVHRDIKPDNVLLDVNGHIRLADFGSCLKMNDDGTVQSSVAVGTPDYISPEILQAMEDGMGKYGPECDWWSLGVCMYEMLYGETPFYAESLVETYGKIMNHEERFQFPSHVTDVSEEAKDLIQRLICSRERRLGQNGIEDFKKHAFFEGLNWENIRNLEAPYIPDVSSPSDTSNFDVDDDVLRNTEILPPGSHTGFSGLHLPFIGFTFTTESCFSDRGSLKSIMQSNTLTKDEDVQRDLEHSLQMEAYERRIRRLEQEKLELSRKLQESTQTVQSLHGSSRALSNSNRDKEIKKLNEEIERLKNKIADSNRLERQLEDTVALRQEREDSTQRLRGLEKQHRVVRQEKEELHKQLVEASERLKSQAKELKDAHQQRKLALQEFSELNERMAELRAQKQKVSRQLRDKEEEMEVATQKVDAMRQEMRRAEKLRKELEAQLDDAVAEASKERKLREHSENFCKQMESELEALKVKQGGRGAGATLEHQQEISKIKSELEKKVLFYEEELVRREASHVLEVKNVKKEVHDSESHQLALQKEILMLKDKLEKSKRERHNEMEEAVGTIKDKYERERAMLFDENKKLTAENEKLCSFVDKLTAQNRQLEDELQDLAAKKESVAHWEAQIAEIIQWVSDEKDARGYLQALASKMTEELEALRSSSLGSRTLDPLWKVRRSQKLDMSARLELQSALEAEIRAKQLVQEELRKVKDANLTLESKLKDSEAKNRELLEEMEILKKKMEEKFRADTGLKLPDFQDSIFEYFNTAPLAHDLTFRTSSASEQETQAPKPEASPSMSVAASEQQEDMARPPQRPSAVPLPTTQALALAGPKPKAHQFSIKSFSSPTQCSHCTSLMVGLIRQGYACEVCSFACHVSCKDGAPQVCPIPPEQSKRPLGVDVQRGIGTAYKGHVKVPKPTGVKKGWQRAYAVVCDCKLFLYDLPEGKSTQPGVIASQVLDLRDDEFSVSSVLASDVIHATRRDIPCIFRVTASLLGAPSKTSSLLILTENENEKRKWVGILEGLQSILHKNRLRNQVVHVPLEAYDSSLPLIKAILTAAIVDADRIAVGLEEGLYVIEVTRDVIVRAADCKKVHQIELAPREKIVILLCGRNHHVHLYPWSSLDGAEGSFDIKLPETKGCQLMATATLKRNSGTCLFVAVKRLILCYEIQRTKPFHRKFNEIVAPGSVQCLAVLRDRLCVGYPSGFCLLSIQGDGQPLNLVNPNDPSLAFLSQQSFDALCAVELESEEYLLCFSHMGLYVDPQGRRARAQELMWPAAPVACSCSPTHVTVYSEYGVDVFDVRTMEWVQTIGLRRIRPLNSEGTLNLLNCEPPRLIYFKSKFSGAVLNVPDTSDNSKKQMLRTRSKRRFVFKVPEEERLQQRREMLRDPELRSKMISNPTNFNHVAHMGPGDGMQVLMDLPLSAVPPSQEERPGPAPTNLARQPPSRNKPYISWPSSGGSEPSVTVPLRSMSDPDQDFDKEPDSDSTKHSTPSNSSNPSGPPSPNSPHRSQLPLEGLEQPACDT

inhibition at 10 µM (ERBB4; ERBB4, 10 µM, read-out: % Competition): 80% | inhibition at 10 µM (FLT3(D835Y); FLT3(D835Y), 10 µM, read-out: % Competition): 76% | % Competition (MST3): 68% | inhibition at 10 µM (TNIK; TNIK, 10 µM, read-out: % Competition): 96% | competition (PKC ε): < 50% | inhibition at 10 µM (BMPR1B; BMPR1B, 10 µM, read-out: % Competition): 81% | inhibition at 10 µM (MRCKB; MRCKB, 10 µM, read-out: % Competition): 98% | inhibition at 10 µM (MARK2; MARK2, 10 µM, read-out: % Competition): 77% | inhibition at 10 µM (IRAK3; IRAK3, 10 µM, read-out: % Competition): 75%
SMILES: Fc1ccc(-c2c(-c3ccncc3)[nH]c3nccnc23)cc1 [Compound 122]

SMILES: CC(O)CNc1cc(-c2[nH]c3cccnc3c2-c2ccc(F)cc2)ccn1 (stereo not drawn) [Compound 140]
inhibition at 10 µM (ERBB4; read-out: % Competition): < 50% | inhibition at 10 µM (FLT3(D835Y); read-out: % Competition): < 50% | % Competition (MST3): <50% | inhibition at 10 µM (TNIK; read-out: % Competition): < 50% | competition (PKC ε): < 50% | inhibition at 10 µM (BMPR1B; read-out: % Competition): < 50% | inhibition at 10 µM (MRCKB; read-out: % Competition): < 50% | inhibition at 10 µM (MARK2; read-out: % Competition): < 50% | inhibition at 10 µM (IRAK3; read-out: % Competition): < 50%

inhibition at 10 µM (ERBB4; ERBB4, compound concentration 10 uM, read-out: Percent Competition): 80% | inhibition at 10 µM (FLT3(D835Y); FLT3(D835Y), compound concentration 10 uM, read-out: Percent Competition): 76% | Percent Competition (MST3; compound concentration 10 uM): 68% | inhibition at 10 µM (TNIK; TNIK, compound concentration 10 uM, read-out: Percent Competition): 96% | inhibition at 10 µM (PKC ε; PRKCE, compound concentration 10 uM, read-out: Percent Competition): < 50% | inhibition at 10 µM (BMPR1B; BMPR1B, compound concentration 10 uM, read-out: Percent Competition): 81% | inhibition at 10 µM (MRCKB; MRCKB, compound concentration 10 uM, read-out: Percent Competition): 98% | inhibition at 10 µM (MARK2; MARK2, compound concentration 10 uM, read-out: Percent Competition): 77% | inhibition at 10 µM (IRAK3; IRAK3, compound concentration 10 uM, read-out: Percent Competition): 75%
SMILES: Fc1ccc(-c2c(-c3ccncc3)[nH]c3nccnc23)cc1 [RO1155697-000-005]
